The subject of data set [1] is PC3 (prostate cancer) cells. Briefly: SRB cytotoxicity assay, PC3. The conditions noted are these: Homo sapiens; SRB assay, 48 h culture, mean ± SD, at least three independent experiments; compounds marked * : low solubility, real values might be lower; read-out: Cytotoxicity IC50, PC3. It is filed as cell-based. The protocol:
(§1) The antiproliferative activity was tested on human primary (SW480) and metastatic (SW620) colon cancer, human prostate cancer (PC3), human liver cancer (HepG2), human breast cancer (MDA), human lung cancer (A549), and human immortalized keratinocyte (HaCaT) cell lines obtained from the American Type Culture Collection (ATCC, Rockville, MD, USA). The cells were cultured in EMEM (SW480 and SW620), RPMI 1640 (PC3) or DMEM High Glucose (HepG2, MDA, A549, and HaCaT) with stable glutamine supplemented with 10% heat-inactivated fetal bovine serum (FBS), penicillin (100 U/mL), and streptomycin (100 µg/mL) in 37 °C and 5% CO2/95% air humified incubator. The cells were grown until 80–90% confluence and then were harvested with 0.25% trypsin and used for the experiments. All the reagents for the cell culture were provided by VWR Chemicals.
(§2) Cytotoxicity was tested with the sulforhodamine B (SRB) assay according to the National Cancer Institute protocol with slight modifications. Briefly, cells were seeded on a 96-well plate (5 × 10^3 cells per well). After 24 h incubation, zero-time control cells were fixed with TCA (final concentration 5%) for 1 h at 4 °C. […] The untreated cells were used as the control. After incubation, the cells were fixed with TCA (final concentration 5%) for 1 h at 4 °C, gently washed 4 times with tap water, and left for drying. The dried fixed cells were incubated with SRB solution (0.05% SRB in 1% acetic acid) for 30 min rt, washed four times with 1% acetic acid, and left for drying. The dried cells were dissolved in 10 mM Tris-base solution (pH 10.5) and the absorbance was read at 510 nm.
(§3) The cell viability was presented as a percent of SRB reduction in the treated cells versus that in control cells. The mean absorbance for control cells was assumed as 100%. No-cell control (blank well) absorbance was assumed as 0%, unless the compound was cytostatic, then 0% referred to zero-time control. The IC50 values were calculated using the GraphPad Prism 10.1.2 (324) (USA) software. The most cytotoxic compounds (8 and 20) were selected for further in vitro experiments.

Data set [2] deals with MDA (breast cancer) cells. Briefly: SRB cytotoxicity assay, MDA. The conditions noted are these: Homo sapiens; SRB assay, 48 h culture, mean ± SD, at least three independent experiments; compounds marked * : low solubility, real values might be lower; read-out: Cytotoxicity IC50, MDA. It is filed as cell-based. The protocol:
as §1, §2, §3

Data set [3] in a line: SRB cytotoxicity assay, HaCaT. The following applies: human, 48 h culture, mean ± SD, at least three independent experiments, compounds marked * : low solubility, real values might be lower. It is filed as cell-based. The protocol:
as §1, §2, §3

In data set [4] the test system is six human cancer cell lines (SW480, SW620, PC3, HepG2, MDA, A549) and HaCaT. Briefly: SRB cytotoxicity assay, whole panel. The conditions noted are these: for Cytotoxicity (in words): cell line panel; for IC50: Homo sapiens, depending on the compound and cell line, read-out: IC50 over the cell line panel. It is filed as cell-based. The protocol:
The antiproliferative properties of the studied combretastatin derivatives were tested on six human cancer cell lines, including primary colon (SW480), metastatic colon (SW620), prostate (PC3), liver (HepG2), breast (MDA), and lung (A549) cancer cells, and non-tumor human immortalized keratinocyte cell line (HaCaT) using the sulforhodamine B (SRB) assay. […] No selectivity was observed against the tumor cell lines when compared to that against the non-tumor cell line. Nevertheless, these values were much higher than the IC50 of the reference compounds (<0.2 μM).
as §1, §2, §3

For data set [5], the system named is SW620 (metastatic colon cancer) cells. Briefly: SRB cytotoxicity assay, SW620. The conditions noted are these: Homo sapiens, SW-620; SRB assay, 48 h culture, mean ± SD, at least three independent experiments; compounds marked * : low solubility, real values might be lower; read-out: Cytotoxicity IC50, SW620. Format: cell-based. The protocol: as §1, §2, §3
The test system of data set [6] is HepG2 (liver cancer) cells. Briefly: SRB cytotoxicity assay, HepG2. Format: cell-based. The conditions noted are these: Homo sapiens, HepG2; SRB assay, 48 h culture, mean ± SD, at least three independent experiments; compounds marked * : low solubility, real values might be lower; read-out: Cytotoxicity IC50, HepG2. How it is done: as §1, §2, §3
For a further data set, the system named is A549 (lung cancer) cells. Briefly: SRB cytotoxicity assay, A549. The conditions noted are these: Homo sapiens, A549; SRB assay, 48 h culture, mean ± SD, at least three independent experiments; compounds marked * : low solubility, real values might be lower; read-out: Cytotoxicity IC50, A549. It is filed as cell-based. The protocol:
as §1, §2, §3

The test system of data set [7] is SW480 (primary colon cancer) cells. Briefly: SRB cytotoxicity assay, SW480. Format: cell-based. The following applies: Homo sapiens, SW480; SRB assay, 48 h culture, mean ± SD, at least three independent experiments; compounds marked * : low solubility, real values might be lower; read-out: Cytotoxicity IC50, SW480. How it is done:
as §1, §2, §3

Details of data set [8]: method as in earlier work. The following applies: in contrast to the original compound; cited from earlier work.
A further data set concerns A549 cells. Briefly: Cell cycle analysis (PI, flow cytometry), A549. Format: cell-based, human. The following applies: A549, 24 h treatment; for Cell cycle phase arrest (ratio G2/M to G0/G1): 1.5 and 2 nM CA4, 25, 30, 40 mM 8, 15, 20, 30 mM 20. How it is done:
(§4) The cell cycle was assessed for the compounds 8 and 20 and the combretastatin CA4 as a reference compound. The compounds were most cytotoxic to the MDA and A549 cancerous cell lines; thus, these cell lines were selected for further analyses. The HaCaT cell line was chosen to represent non-cancer cells. For the experiment, the cells were seeded on 6-well plates (5 × 10^4 cells per well). After 24 h of incubation, the cells were treated with the compounds in selected concentrations (1.5 and 2 nM for CA4; […]) and incubated for the next 24 h. Then, the cells were detached with 0.25% trypsin, washed with 0.9% NaCl, and fixed with 70% ethanol at 4 °C for at least 16 h. For drying, the cells were washed twice with 0.9% NaCl, resuspended in 50 μg/mL propidium iodide (PI) and 100 μg/mL RNase in PBS and incubated for 30 min at 37 °C. The cell cycle distribution was analyzed by flow cytometer (FACS Verse, Becton, Dickinson and Company, Franklin Lakes, NJ, USA).

The subject of another data set is tubulin. Briefly: In vitro tubulin polymerization (turbidometry at 340 nm, BK004P kit). Format: biochemical, porcine. The following applies: for Concentration dependence of the acceleration of tubulin polymerization: 20 and 100 μM; for Effect on in vitro tubulin polymerization: 37 °C, 60 min, absorbance 340 nm, CA-4 5 μM, colchicine 5 μM, compounds 8 and 20 at 20 or 100 μM. The protocol:
The kinetics of microtubule assembly was assessed by measuring absorbance at 340 nm over time.
The assembly of purified bovine tubulin was monitored using a BK004P kit, purchased from Cytoskeleton Inc. (Denver, CO, USA). The assay was performed according to the manufacturer’s instructions using the standard assay conditions. […] Light was scattered proportionally to the concentration of the polymerized microtubules in the assay. Then, the tubulin assembly was monitored by turbidometry at 340 nm in a MultiscanGo spectrophotometer (ThermoFisher Scientific, Carlsbad, CA, USA) for 60 min. The time dependence of the tubulin polymerization was presented in the form of graphs prepared in the GraphPad Prism 8.4.3.686 (Boston, MA, USA) software.

Another data set deals with HaCaT cells. Briefly: Cell cycle analysis (PI, flow cytometry), HaCaT. It is filed as cell-based, human. The conditions noted are these: 24 h treatment; for Cell cycle phase arrest (ratio G2/M to G0/G1): 1.5 and 2 nM CA4, 25, 30, 40 mM 8, 15, 20, 30 mM 20. How it is done: as §4
A further data set has as its system MDA cells. Briefly: Cell cycle analysis (PI, flow cytometry), MDA. It is filed as cell-based, human. The following applies: 24 h treatment; for Cell cycle phase arrest (ratio G2/M to G0/G1): 1.5 and 2 nM CA4, 25, 30, 40 mM 8, 15, 20, 30 mM 20. The protocol:
as §4

Where [9] appears, read: HaCaT immortalized keratinocyte cells (non-tumor cell line).

Take `CCCN(CCC)C(=O)/C(=C/c1cc(OC)c(OC)c(OC)c1)c1ccc(OC)c(Br)c1` [Compound 19]: the IC50 (in [1]; in data set [2]; in [5]; in data set [6]; in the data set on A549 (lung cancer) cells; in [7]) was greater than 100 µM throughout. The molecule also showed an IC50 at 48 h in data set [3] (setting [9]) greater than 100 µM. In data set [4], the “Cytotoxicity (in words)” value is “did not show any cytotoxicity”.
`COc1ccc(/C(=C\c2cc(OC)c(OC)c(OC)c2)C(=O)OCCCCCCBr)cc1Br` [Compound 9]: the IC50 (in data set [1]; in data set [2]; in [5]; in [6]; in the data set on A549 (lung cancer) cells; in [7]) was greater than 100 µM each time. Moreover, in [3] (setting [9]), the IC50 at 48 h was greater than 100 µM. For the same molecule, the “Cytotoxicity (in words)” value in data set [4] is given as “did not show any cytotoxicity”.
`COc1ccc(/C=C\c2cc(OC)c(OC)c(OC)c2)cc1OP(=O)(O)O` [Combretastatin A4 phosphate, combretastatin A-4 disodium phosphate]: the Water solubility result in [8] is given as “water-soluble”.
In the case of `COc1ccc(/C(=C\c2cc(OC)c(OC)c(OC)c2)C(=O)OCCCCBr)cc1Br` [Compound 8], the IC50 in [1] is 31 ± 5.5 µM; in data set [2] it was 23.1 ± 7.7 µM; in [4], 18.8 to 32.7 µM; in [5], 24.2 ± 8.4 µM; in data set [6] it was 25.5 ± 6.3 µM; in the data set on A549 (lung cancer) cells, 19.6 ± 2 µM. For the same molecule, in data set [7], the IC50 came to 32.7 ± 6.7 µM. The molecule also gave an IC50 at 48 h in data set [3] (setting [9]) of 23.9 ± 3.9 µM. Also, the “DNA fragmentation (subG1 phase)” value with A549 cells is reported as “certain differences were noted”; with HaCaT cells it was “appearance of the subG1 phase was observed”; in the data set on MDA cells it was “statistically significant differences between subG1 populations were observed”. The “Cell cycle phase arrest (ratio G2/M to G0/G1)” value with A549 cells was “G0/G1 phase arrest”; with HaCaT cells it was “G0/G1 phase arrest”; in the data set on MDA cells, “not observed”. Further, the “Concentration dependence of the acceleration of tubulin polymerization” value in the data set with tubulin is “concentration-dependent”. For the same molecule, the “Effect on in vitro tubulin polymerization” value (from here on “Effect”) with tubulin is on record as “enhanced tubulin polymerization”.
For the molecule `CCCCN(CCCC)C(=O)/C(=C/c1cc(OC)c(OC)c(OC)c1)c1ccc(OC)c(Br)c1` [Compound 20], the IC50 is 23.7 ± 10.3 µM in data set [1]; 19 ± 7.1 µM in data set [2]; 18.8 to 32.7 µM in [4]; 20.9 ± 2.9 µM in data set [5]; 25.8 ± 9.6 µM in [6]; 19.4 ± 2.2 µM in the data set with A549 (lung cancer) cells. For the same molecule, in data set [7], the IC50 was 18.8 ± 0.8 µM. The molecule further returned an IC50 at 48 h in data set [3] (setting [9]) of 20.5 ± 9.7 µM. The “DNA fragmentation (subG1 phase)” value with A549 cells is given as “certain differences were noted”; in the data set on HaCaT cells, “appearance of the subG1 phase was observed”. In addition, the “Cell cycle phase arrest (ratio G2/M to G0/G1)” value with A549 cells, in the data set with HaCaT cells and in the data set with MDA cells was “G0/G1 phase arrest” each time. For the same molecule, the “Concentration dependence of the acceleration of tubulin polymerization” value in the data set with tubulin is reported as “on a similar level”. In addition, in the data set with tubulin, the “Effect” value was “enhanced tubulin polymerization”.
`COc1ccc(/C=C\c2cc(OC)c(OC)c(OC)c2)cc1O` [CA4, combretastatin A-4]: the IC50 in data set [1] is 0.0021 ± 0.00026 µM; in [2], 0.00372 ± 0.00027 µM; in data set [5], 0.00221 ± 0.00088 µM; in data set [6] it was 0.00158 ± 0.00019 µM; in the data set on A549 (lung cancer) cells, 0.00343 ± 0.00096 µM; in data set [7], 0.00281 ± 0.00017 µM. The IC50 at 48 h in data set [3] (non-tumor cell line) was 0.00427 ± 0.00047 µM. Besides, the “Cell cycle phase arrest (ratio G2/M to G0/G1)” value in the data set on A549 cells is given as “no statistically significant differences”; in the data set with HaCaT cells, “G2 phase arrest”; with MDA cells, “no statistically significant differences”. Further, the “Effect” value in the data set with tubulin is recorded as “inhibited tubulin polymerization”. The “DNA fragmentation (subG1 phase)” value in the data set on HaCaT cells is on record as “appearance of the subG1 phase was observed”; with MDA cells it was “statistically significant differences between subG1 populations were observed”.
As for `COc1ccc(/C(=C\c2cc(OC)c(OC)c(OC)c2)C(=O)O)cc1Br` [Compound 3], the IC50 (in [1]; in data set [2]; in [5]; in data set [6]; with A549 (lung cancer) cells; in [7]) was greater than 100 µM throughout. Besides, the IC50 at 48 h in [3] (setting [9]) was greater than 100 µM. Besides, in data set [4], the “Cytotoxicity (in words)” value is given as “does not have any anticancer potential”.

(Values after paper PMC11124394, “Novel Combretastatin A-4 Analogs—Design, Synthesis, and Antiproliferative and Anti-Tubulin Activity” (Molecules, 2024).)
